From patent EP2272817A1, “PAI-1 INHIBITOR” (Institute of Medicinal Molecular Design, Inc., priority 2008, dated 2009)

Target: recombinant human PAI-1 (Homo sapiens, UniProt P05121)
Assay: Test Example 2: Human PAI-1 Inhibitory Activity (pH 7.4 HEPES buffer, 10 minutes incubation with two-chain tPA)
Assay type: biochemical
Parameters: purchased Molecular Innovations, Inc
Details: read-out: Inhibition Rate of PAI-1 Activity (%)
Procedure: 0.1 M HEPES, 0.1 M NaCl. 1 mM EDTA. 0.1 % Polyethylene glycol 8,000 (Hampton Research Corporation),
2 mM Dimethyldecylphoshine oxide [Apo-10] (Fluka Corporation)

Sequence of recombinant human PAI-1 (P05121 24-402): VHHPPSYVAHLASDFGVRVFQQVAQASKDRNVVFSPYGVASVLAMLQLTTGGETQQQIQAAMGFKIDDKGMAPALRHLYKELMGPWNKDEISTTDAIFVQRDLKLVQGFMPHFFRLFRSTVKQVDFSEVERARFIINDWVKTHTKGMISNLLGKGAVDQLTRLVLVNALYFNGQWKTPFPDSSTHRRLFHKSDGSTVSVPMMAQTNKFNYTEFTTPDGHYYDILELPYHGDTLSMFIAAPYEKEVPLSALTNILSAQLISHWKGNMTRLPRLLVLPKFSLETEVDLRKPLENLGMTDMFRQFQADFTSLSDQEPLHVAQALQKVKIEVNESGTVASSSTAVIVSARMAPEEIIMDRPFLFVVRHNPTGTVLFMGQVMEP

inhibition at 0.1 µM [%]	inhibition at 0.3 µM [%]	inhibition at 1 µM [%]	inhibition at 3 µM [%]	inhibition at 10 µM [%]	inhibition at 25 µM [%]	SMILES
24	64	95	88	–	–	O=C(O)C(=O)N(CCCCc1ccccc1)c1cc(-c2ccc(OC(F)(F)F)cc2)ccc1OCCCC1CCCCC1 [Compound 656]
18	41	96	98	–	–	CCCCc1ccc(Oc2cc(-c3ccc(OC(F)(F)F)cc3)ccc2CCC(=O)O)cc1 [Compound 512]
9	53	95	95	–	–	CCCCC(C(=O)O)N(Cc1ccc(C(C)(C)C)cc1)c1cccc(-c2ccc(OC(F)(F)F)cc2)c1 (centres unmarked) [Compound 641]
10	29	95	97	–	–	CCCCC(Oc1cc(Oc2ccc(C(C)(C)C)cc2)cc(-c2ccc(OC(F)(F)F)cc2)c1)C(=O)O (centres unmarked) [Compound 426]
0	21	89	98	–	–	CC(C)(C)[C@H]1CC[C@@H](N(C(=O)C(=O)O)c2ccc(-c3ccc(OC(F)(F)F)cc3)cc2)CC1 [Compound 666]
–	–	–	15	17	53	O=C(O)c1cc(-c2ccc(OC(F)(F)F)cc2)ccc1OCc1ccccc1 [Compound 401]
0	3	56	92	–	–	O=C(O)CCc1cc(-c2ccc(OC(F)(F)F)cc2)ccc1OCCCCCOc1ccc(-c2ccc(OC(F)(F)F)cc2)cc1CCC(=O)O [Compound 544]
8	20	90	> 99	–	–	CCCCC(Oc1cc(-c2cccc(C(F)(F)F)c2)ccc1Oc1ccc(C(C)(C)C)cc1)C(=O)O (centres unmarked) [Compound 318]
14	30	45	91	–	–	CC(C)(C)c1ccc(Oc2cc(-c3ccc(OC(F)(F)F)cc3)ccc2N(CCCCc2ccccc2)C(=O)C(=O)O)cc1 [Compound 635]
–	–	14	63	> 99	95	CCCCOc1ccc(-c2ccc(OC(F)(F)F)cc2)cc1C=CC(=O)O [Compound 405]
17	21	93	> 99	–	–	CC(C)(C)c1ccc(Sc2cc(-c3ccc(OC(F)(F)F)cc3)ccc2CC(=O)O)cc1 [Compound 530]
15	14	71	> 99	–	–	CCCCOc1cccc(Oc2cc(-c3ccc(OC(F)(F)F)cc3)ccc2CCC(=O)O)c1 [Compound 472]
0	33	> 99	> 99	–	–	CCCCc1ccc(-c2ccc(Oc3ccc(C(C)(C)C)cc3)c(OCC(=O)O)c2)cc1 [Compound 505]
0	5	80	71	–	–	CCCCC1CCC(Oc2ccc(-c3ccc(OC(F)(F)F)cc3)cc2N(CCCCc2ccccc2)C(=O)C(=O)O)CC1 (centres unmarked) [Compound 637]
21	22	96	> 99	–	–	CC(C)(C)c1cccc(Oc2cc(-c3cccc(OC(F)(F)F)c3)ccc2/C=C/C(=O)O)c1 [Compound 514]
27	43	95	98	–	–	CCCCCOc1ccc(-c2ccc(OC(F)(F)F)cc2)cc1CN(CC(=O)O)c1ccc(C(C)(C)C)cc1 [Compound 647]
6	9	84	> 99	–	–	CC(C)(C)[C@H]1CC[C@H](CN(C(=O)C(=O)O)c2ccc(-c3ccc(OC(F)(F)F)cc3)cc2)CC1 [Compound 679]

inhibition at 0.1 µM [%]	inhibition at 0.3 µM [%]	inhibition at 1 µM [%]	inhibition at 3 µM [%]	inhibition at 10 µM [%]	inhibition at 25 µM [%]	SMILES
–	–	14	41	> 99	98	CCCCOc1ccc(-c2ccc(OC(F)(F)F)cc2)cc1CCC(=O)O [Compound 407]
9	11	58	98	–	–	CC(C)(C)c1ccc(Oc2cc(-c3ccc(OC(F)(F)F)cc3)ccc2/C=C\C(=O)O)cc1 [Compound 450]
26	12	23	92	–	–	O=C(O)C(=O)N(CCCCc1ccccc1)c1ccc(-c2ccc3ccccc3c2)cc1 [Compound 671]
5	55	> 99	98	–	–	O=C(O)C(=O)N(CCCCc1ccccc1)c1ccc(N2CCCCCC2)c(-c2ccc(OC(F)(F)F)cc2)c1 [Compound 674]
0	9	31	97	–	–	O=C(O)C(=O)N(Cc1ccc(-c2ccc(OC(F)(F)F)cc2)cc1)c1ccccc1-c1ccccc1 [Compound 632]
6	11	27	> 99	–	–	O=C(O)C(=O)N(Cc1ccc2ccccc2c1)c1ccc(-c2ccc(OC(F)(F)F)cc2)cc1 [Compound 661]
6	55	97	94	–	–	CCCCCOc1ccc(-c2ccc(OC(F)(F)F)cc2)cc1N(CCCCc1cc(C)ccc1C)C(=O)C(=O)O [Compound 670]
26	31	42	86	–	–	CC(C)(C)c1ccc(Oc2cc(-c3ccc(F)cc3)ccc2OCC(=O)O)cc1 [Compound 459]
4	15	96	> 99	–	–	CC(C)(C)c1ccc(Oc2ccc(-c3ccc(C(C)(C)C)cc3)cc2OCC(=O)O)cc1 [Compound 453]
2	8	19	97	–	–	O=C(O)COc1ccc(-c2ccc(OC(F)(F)F)cc2)cc1OCCCCc1ccccc1 [Compound 337]
–	–	9	18	78	> 99	O=C(O)CC(=O)N(Cc1ccccc1)c1ccc(-c2ccc(OC(F)(F)F)cc2)cc1F [Compound 602]
0	0	77	> 99	–	–	CC(C)(C)c1ccc(Oc2ccc(Nc3ccc(OC(F)(F)F)cc3)cc2/C=C/C(=O)O)cc1 [Compound 431]
19	17	93	96	–	–	CCCCCOc1ccc(-c2ccc(C)cc2)cc1N(CCCCc1ccccc1)C(=O)C(=O)O [Compound 677]
10	17	87	98	–	–	CC(C)(C)c1ccc(-c2ccc(OCC(=O)O)c(Oc3cccc(C(C)(C)C)c3)c2)cc1 [Compound 465]
0	3	65	> 99	–	–	O=C(O)CCc1ccc(-c2ccc(OC(F)(F)F)cc2)cc1Oc1ccc2ccccc2c1 [Compound 476]
6	13	91	> 99	–	–	CC(C)c1ccccc1Oc1cc(-c2ccc(OC(F)(F)F)cc2)ccc1/C=C/C(=O)O [Compound 490]

SMILES	inhibition at 0.1 µM [%]	inhibition at 0.3 µM [%]	inhibition at 1 µM [%]	inhibition at 3 µM [%]	inhibition at 10 µM [%]	inhibition at 25 µM [%]
CCCCC(Oc1ccc(-c2ccc(OC(F)(F)F)cc2)cc1OCc1ccc(C(C)(C)C)cc1)C(=O)O (centres unmarked) [Compound 310]	11	19	72	96	–	–
CCCCCCC(Oc1cc(-c2ccc(OC(F)(F)F)cc2)ccc1Oc1ccc(OC(F)(F)F)cc1)C(=O)O (centres unmarked) [Compound 326]	0	28	94	94	–	–
O=C(O)C(=O)N(CCCCc1ccccc1)c1cc(-c2ccc(OC(F)(F)F)cc2)ccc1OCCCC1CCCC1 [Compound 355]	2	3	91	86	–	–
CC(C)(C)OCCOc1ccc(-c2ccc(OC(F)(F)F)cc2)cc1N(CCCCc1ccccc1)C(=O)C(=O)O [Compound 351]	2	7	23	84	–	–
CCCCCOc1cc(Oc2ccc(OC(F)(F)F)cc2)ccc1N(CCCCc1ccccc1)C(=O)C(=O)O [Compound 362]	11	18	61	> 99	–	–
CCCCC(Oc1cc(-c2ccc(OC(F)(F)F)cc2)ccc1Oc1ccccc1)C(=O)O (centres unmarked) [Compound 307]	0	1	22	91	–	–
O=C(O)C(=O)N(CCCCc1ccccc1)c1cc(-c2ccc(OC(F)(F)F)cc2)ccc1N1CCCCC1 [Compound 370]	0	0	66	97	–	–
CCCCCOc1ccc(-c2ccc(OC(F)(F)F)cc2)cc1N(CCCSc1ccccc1)C(=O)C(=O)O [Compound 357]	0	2	69	> 99	–	–
O=C(O)C(=O)N(CCCCc1ccccc1)c1cc(-c2ccc(OC(F)(F)F)cc2)ccc1OCCCCC(F)(F)F [Compound 381]	12	13	48	> 99	–	–
